Measured values published in patent US20220125765A1, “PHARMACEUTICAL COMBINATIONS COMPRISING MEBENDAZOLE AND A STRONG OR MODERATE CYP1A2 INHIBITOR” (ZEPHAPHARM LTD, priority 2019, published 2022).
Like-named read-outs stand apart in the source and are kept apart here.

Key:
SXFO U-2-OS = experiment: 2D monolayer CellTiter-Blue viability, osteosarcoma U-2-OS; assay type: cell-based; conditions: 72 h
Experimental: (§1) Seventeen compounds, including mebendazole (Batch no. […] Efficacy of compounds was assessed using CellTiter-Blue® Cell Viability Assay. Anti-tumor activity is expressed as absolute and relative IC50 and IC70 values, calculated by non-linear regression analysis.

CYP2B6 = molecular target: T1, CYP2B6 (Homo sapiens, UniProt P20813); experiment: Cytochrome P450 reaction phenotyping, recombinant CYP2B6 (Bactosomes)
T1 sequence (P20813 1-491): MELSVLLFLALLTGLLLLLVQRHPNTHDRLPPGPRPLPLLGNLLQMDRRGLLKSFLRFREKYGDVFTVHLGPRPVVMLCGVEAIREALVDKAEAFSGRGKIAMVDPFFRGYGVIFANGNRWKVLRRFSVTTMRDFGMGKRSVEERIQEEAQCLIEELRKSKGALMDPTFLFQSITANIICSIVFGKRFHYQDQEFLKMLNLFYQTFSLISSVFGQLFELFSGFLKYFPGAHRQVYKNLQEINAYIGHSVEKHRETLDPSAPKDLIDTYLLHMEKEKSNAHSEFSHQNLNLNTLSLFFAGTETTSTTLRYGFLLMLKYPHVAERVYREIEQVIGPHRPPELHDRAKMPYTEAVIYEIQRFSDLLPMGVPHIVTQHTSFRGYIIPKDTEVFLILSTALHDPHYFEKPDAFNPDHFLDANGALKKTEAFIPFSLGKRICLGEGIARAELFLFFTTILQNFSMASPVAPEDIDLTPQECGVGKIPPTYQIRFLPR
Experimental: Incubations were also performed using control Bactosomes™ (no P450 enzymes present) to reveal any non-enzymatic degradation. Control compounds known to be metabolised specifically by each P450 isoform were included. All incubations were performed singularly for each test compound.
Incubations were also performed using control Bactosomes™ (no P450 enzymes present) to reveal any non-enzymatic degradation. Control compounds known to be metabolised specifically by each P450 isoform were included. All incubations were performed singularly for each test compound. […] The reactions were stopped by transferring an aliquot of incubate to quench solvent at the appropriate time points, in a 1:3 ratio. The termination plates were centrifuged at 3,000 rpm for 20 min at 4° C. to precipitate the protein.

NBXF CHP-212 = experiment: 2D monolayer CellTiter-Blue viability, neuroblastoma CHP-212; assay type: cell-based; conditions: 72 h
Experimental: as §1

[1] = molecular target: T2, human OATP1B1 transporter (Homo sapiens, UniProt Q9Y6L6); experiment: Uptake into OATP1B1 and empty vector transfected HEK293 cells; assay type: in vitro ADME; conditions: for Uptake rate Mean: 2 min; for Uptake ratio: OATP1B1 vs control
T2 construct: expressed in transfected cells; host or cells: HEK293 (transient transfection)
T2 sequence (Q9Y6L6 1-691): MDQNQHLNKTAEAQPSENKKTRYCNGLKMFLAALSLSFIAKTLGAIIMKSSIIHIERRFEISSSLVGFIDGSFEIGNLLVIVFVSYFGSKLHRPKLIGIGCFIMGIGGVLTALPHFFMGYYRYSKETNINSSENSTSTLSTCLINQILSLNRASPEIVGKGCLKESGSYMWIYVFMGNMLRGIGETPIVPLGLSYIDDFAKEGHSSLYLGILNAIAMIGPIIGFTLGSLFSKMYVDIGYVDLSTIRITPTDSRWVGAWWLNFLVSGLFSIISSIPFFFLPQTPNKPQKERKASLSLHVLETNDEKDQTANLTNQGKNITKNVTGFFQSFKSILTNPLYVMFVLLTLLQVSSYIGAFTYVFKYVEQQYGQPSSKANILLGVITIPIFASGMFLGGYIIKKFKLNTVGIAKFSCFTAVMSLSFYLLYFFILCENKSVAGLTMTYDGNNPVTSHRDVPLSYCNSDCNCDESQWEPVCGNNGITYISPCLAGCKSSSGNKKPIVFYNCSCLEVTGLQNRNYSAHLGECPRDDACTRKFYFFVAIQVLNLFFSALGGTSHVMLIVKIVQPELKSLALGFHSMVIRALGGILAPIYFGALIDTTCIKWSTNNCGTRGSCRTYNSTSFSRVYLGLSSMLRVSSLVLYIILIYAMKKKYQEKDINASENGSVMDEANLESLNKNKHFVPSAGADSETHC
Experimental: Test compound (at 1 and 10 μM) was incubated with both SLC transporter-expressing HEK293 cells and control (empty vector) HEK293 cells for 2 min.

SXFS SK-LMS-1 = experiment: 2D monolayer CellTiter-Blue viability, soft tissue sarcoma SK-LMS-1; assay type: cell-based; conditions: 72 h
Experimental: as §1

786-O = experiment: 2D monolayer CellTiter-Blue viability, renal cancer 786-O; assay type: cell-based; conditions: for IC50: Homo sapiens, 786-0, 72 h
Experimental: Mebendazole was tested in vitro across a panel of 12 tumor cell lines of ovarian and renal cancer by using a 2D monolayer assay. […] OVXF 899L and RXF 486L are P-gp expressing, multidrug resistant cell lines.
Anti-tumor activity is expressed as absolute and relative IC50/70 values, calculated by 4-parameter non-linear curve fit.

Compound Remaining (% of 0 min) (CYP2B6; CYP2B6, 5 μM, 0 min): 100 % of 0 min
Compound Remaining (% of 0 min) (CYP2B6; CYP2B6, 5 μM, 5 min): 117 % of 0 min
Compound Remaining (% of 0 min) (CYP2B6; CYP2B6, 5 μM, 15 min): 108 % of 0 min
Compound Remaining (% of 0 min) (CYP2B6; CYP2B6, 5 μM, 30 min): 112 % of 0 min
Compound Remaining (% of 0 min) (CYP2B6; CYP2B6, 5 μM, 45 min): 113 % of 0 min
% compound remaining (CYP2B6; CYP2B6, 5 μM, time not stated): > 87.5%
t1/2 (CYP2B6; CYP2B6, substrate 5 μM): >2.25 h
half-life at 5 μM (CYP2B6; human, recombinant CYP2B6 (Bactosomes), pH 7.4): > 2.25 h
Uptake rate Mean ([1]; 1 μM, OATP1B1 HEK293 cells): 42.5 pmol/mg
Uptake ratio ([1]; 1 μM): 0.9
Uptake rate Mean ([1]; 1 μM, control (empty vector) HEK293 cells): 49.0 pmol/mg
Uptake rate Mean ([1]; 10 μM, OATP1B1 HEK293 cells): 426 pmol/mg
Uptake ratio ([1]; 10 μM): 0.9
Uptake rate Mean ([1]; 10 μM, control (empty vector) HEK293 cells): 461 pmol/mg
substrate of the human OATP1B1 transporter ([1]; 1 and 10 μM): not a substrate
IC50 (786-O; read-out: Abs. IC50): 470 nM
IC50 (786-O; read-out: Rel. IC50): 457 nM
Compound: COC(=O)Nc1nc2ccc(C(=O)c3ccccc3)cc2[nH]1 [Mebendazole, methyl N-(6-benzoyl-1H-benzimidazol-2-yl)carbamate]
Test/Control (%) at Drug Concentration (SXFO U-2-OS; 1.0E+00 μM): 38%
Test/Control (%) at Drug Concentration (SXFO U-2-OS; 1.0E+01 μM): 13%
Test/Control (%) at Drug Concentration (SXFO U-2-OS; 1.0E+02 μM): 6%
Test/Control (%) at Drug Concentration (SXFO U-2-OS; 1.0E−01 μM): 82%
Test/Control (%) at Drug Concentration (SXFO U-2-OS; 1.0E−02 μM): 89%
Test/Control (%) at Drug Concentration (SXFO U-2-OS; 3.2E+00 μM): 19%
Test/Control (%) at Drug Concentration (SXFO U-2-OS; 3.2E+01 μM): 11%
Test/Control (%) at Drug Concentration (SXFO U-2-OS; 3.2E−01 μM): 54%
Test/Control (%) at Drug Concentration (SXFO U-2-OS; 3.2E−02 μM): 86%
Test/Control (%) at Drug Concentration (SXFO U-2-OS; 3.2E−03 μM): 85%
Test/Control (%) at Drug Concentration (NBXF CHP-212; CHP-212, 1.0E+00 μM): 14%
Test/Control (%) at Drug Concentration (NBXF CHP-212; CHP-212, 1.0E+01 μM): 23%
Test/Control (%) at Drug Concentration (NBXF CHP-212; CHP-212, 1.0E+02 μM): 19%
Test/Control (%) at Drug Concentration (NBXF CHP-212; CHP-212, 1.0E−01 μM): 59%
Test/Control (%) at Drug Concentration (NBXF CHP-212; CHP-212, 1.0E−02 μM): 98%
Test/Control (%) at Drug Concentration (NBXF CHP-212; CHP-212, 3.2E+00 μM): 20%
Test/Control (%) at Drug Concentration (NBXF CHP-212; CHP-212, 3.2E+01 μM): 27%
Test/Control (%) at Drug Concentration (NBXF CHP-212; CHP-212, 3.2E−01 μM): 19%
Test/Control (%) at Drug Concentration (NBXF CHP-212; CHP-212, 3.2E−02 μM): 88%
Test/Control (%) at Drug Concentration (NBXF CHP-212; CHP-212, 3.2E−03 μM): 95%
Test/Control (%) at Drug Concentration (SXFS SK-LMS-1; SK-LMS-1, 1.0E+00 μM): 27%
Test/Control (%) at Drug Concentration (SXFS SK-LMS-1; SK-LMS-1, 1.0E+01 μM): 9%
Test/Control (%) at Drug Concentration (SXFS SK-LMS-1; SK-LMS-1, 1.0E+02 μM): 3%
Test/Control (%) at Drug Concentration (SXFS SK-LMS-1; SK-LMS-1, 1.0E−01 μM): 80%
Test/Control (%) at Drug Concentration (SXFS SK-LMS-1; SK-LMS-1, 1.0E−02 μM): 90%
Test/Control (%) at Drug Concentration (SXFS SK-LMS-1; SK-LMS-1, 3.2E+00 μM): 16%
Test/Control (%) at Drug Concentration (SXFS SK-LMS-1; SK-LMS-1, 3.2E+01 μM): 5%
Test/Control (%) at Drug Concentration (SXFS SK-LMS-1; SK-LMS-1, 3.2E−01 μM): 45%
Test/Control (%) at Drug Concentration (SXFS SK-LMS-1; SK-LMS-1, 3.2E−02 μM): 83%
Test/Control (%) at Drug Concentration (SXFS SK-LMS-1; SK-LMS-1, 3.2E−03 μM): 101%
Test/Control (%) at Drug Concentration (786-O; 1.0E+00 μM, 72 h): 20%
Test/Control (%) at Drug Concentration (786-O; 1.0E−01 μM, 72 h): 95%
Test/Control (%) at Drug Concentration (786-O; 1.0E−02 μM, 72 h): 87%
Test/Control (%) at Drug Concentration (786-O; 1.0E−03 μM, 72 h): 98%
Test/Control (%) at Drug Concentration (786-O; 1.0E−04 μM, 72 h): 107%
Test/Control (%) at Drug Concentration (786-O; 3.2E+00 μM, 72 h): 9%
Test/Control (%) at Drug Concentration (786-O; 3.2E−01 μM, 72 h): 69%
Test/Control (%) at Drug Concentration (786-O; 3.2E−02 μM, 72 h): 88%
Test/Control (%) at Drug Concentration (786-O; 3.2E−03 μM, 72 h): 97%
Test/Control (%) at Drug Concentration (786-O; 3.2E−04 μM, 72 h): 87%
Abs. IC70 (786-O; 72 h): 712 nM
Rel. IC70 (786-O; 72 h): 640 nM
Bot. (%) (786-O; 72 h, curve fit): 9%
Top (%) (786-O; 72 h, curve fit): 94%
